Patent US10342804B2, “Steroid compound for use in the treatment of hepatic encephalopathy” (Umecrine Cognition AB, priority 2014, dated 2019)

Legend:
[1] = target: T1, human α5β3γ2L GABAA receptors (Homo sapiens, UniProt P28472+P31644); assay: Whole-cell voltage-clamp electrophysiology, HEK-293 cells expressing α5β3γ2L GABAA receptors; type: cell-based; conditions: α5β3γ2L expressing cells
T1 construct: expressed in transfected cells; host or cells: HEK-293, permanently transfected
Experimental: (§1) For electrophysiology measurements the Dynaflow® system with the Resolve chip was used (Cellectricon, Göteborg, Sweden). HEK-293 cells were permanently transfected with vectors including the human CMV promoter for constitutive expression of the human α5, β3, and γ2L GABAA receptor subunits (α5β3γ2L) or the human α1, β2, and γ2L GABAA receptor subunits (α1β2γ2L). The cell lines used were selected for good reactivity to GABA and to THDOC. Before measurements cells were incubated for 15 min at 37° C. in 95% air+5% CO2 in extracellular solution (EC) containing the following: 137 mM NaCl, 5.0 mM KCl, 1.0 mM CaCl2, 1.2 mM MgCl2, 10 mM HEPES, and 10 mM glucose, 0.1% DMSO pH 7.4. Thereafter, detached cells were added to the EC solution in the Dynaflow chip bath.
(§2) Whole-cell voltage-clamp recordings were made at room temperature (21-23° C., −17 mV with compensation for liquid junction potential as in Haage et al., 2002; Neher, 1992). Command pulses were generate and data collected by PClamp 9.0 software, DigiData 1322A converter, and AxonPatch 200B (Axon Instruments, Foster City, Calif.). Patch electrodes (2-6 MΩ) were filled with intracellular solution (IC) including: 140 mM Cs-gluconate, 3.0 mM NaCl, 1.2 mM MgCl2, 10 mM HEPES, 1.0 mM EGTA, 2 mM Mg-ATP, 0.1% DMSO, pH 7.2.
(§3) THDOC and 3α-ethynyl-3β-hydroxyandrostan-17-one oxime were dissolved in dimethyl sulfoxide (DMSO) and thereafter diluted with EC solution to include 0.1% DMSO.
(§4) Different protocols were used for different electrophysiology measurements. As α1β2γ2L-GABAA receptors in vivo are present within the synapse a condition resembling that situation, a short application (40 ms) of a high GABA concentration (30 μM), was used. Contrary, α5β3γ2L-GABAA receptors are present extrasynaptically, thus the conditions used were long exposures (6 s) to a low GABA concentration (0.3 μM). The EC75 concentration of THDOC was used, i.e. 100 nM with studies of α1β2γ2L and 200 nM when α5β3γ2L expressing cells were evaluated. With both cell types a pre-exposure with THDOC or THDOC plus 3α-ethynyl-3β-hydroxyandrostan-17-one oxime was used before application of GABA.
(§5) Steroid effects in presence of GABA were normalized to controls in order to avoid the effects of inter- and intracellular variation in the measured parameters, each cell was used as its own control and the area under the curve (AUC) was analyzed.

[2] = target: T2, human α1β2γ2L GABAA receptors (Homo sapiens, UniProt P14867+P47870); assay: Whole-cell voltage-clamp electrophysiology, HEK-293 cells expressing α1β2γ2L GABAA receptors; type: cell-based; conditions: α1β2γ2L expressing cells
T2 construct: expressed in transfected cells; host or cells: HEK-293, permanently transfected
Experimental: as §1, §2, §3, §4, §5

T1 sequence (P31644 32-462): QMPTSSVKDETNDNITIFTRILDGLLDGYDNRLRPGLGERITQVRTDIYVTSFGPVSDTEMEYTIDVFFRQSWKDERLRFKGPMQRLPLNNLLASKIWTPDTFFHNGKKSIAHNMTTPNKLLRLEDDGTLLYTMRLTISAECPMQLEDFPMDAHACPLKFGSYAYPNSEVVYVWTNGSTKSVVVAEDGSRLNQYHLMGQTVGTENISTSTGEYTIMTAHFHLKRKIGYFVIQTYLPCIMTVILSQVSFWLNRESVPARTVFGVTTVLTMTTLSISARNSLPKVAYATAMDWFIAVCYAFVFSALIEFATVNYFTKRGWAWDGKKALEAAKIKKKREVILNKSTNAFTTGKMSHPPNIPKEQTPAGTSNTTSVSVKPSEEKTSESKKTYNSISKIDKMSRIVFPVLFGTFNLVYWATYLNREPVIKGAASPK
T1 sequence (P28472 26-473): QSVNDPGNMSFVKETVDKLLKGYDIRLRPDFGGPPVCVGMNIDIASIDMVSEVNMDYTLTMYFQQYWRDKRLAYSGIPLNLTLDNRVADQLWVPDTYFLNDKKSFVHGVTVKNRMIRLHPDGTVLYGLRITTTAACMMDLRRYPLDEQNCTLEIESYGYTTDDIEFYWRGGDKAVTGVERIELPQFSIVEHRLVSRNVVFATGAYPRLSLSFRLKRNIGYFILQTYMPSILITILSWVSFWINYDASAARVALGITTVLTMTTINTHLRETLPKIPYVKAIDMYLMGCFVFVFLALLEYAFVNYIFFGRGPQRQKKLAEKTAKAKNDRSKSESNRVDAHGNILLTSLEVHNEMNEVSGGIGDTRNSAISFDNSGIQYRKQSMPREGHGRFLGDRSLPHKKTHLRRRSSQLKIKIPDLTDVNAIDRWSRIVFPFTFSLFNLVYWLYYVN
T1 sequence (P18507 40-475 partner): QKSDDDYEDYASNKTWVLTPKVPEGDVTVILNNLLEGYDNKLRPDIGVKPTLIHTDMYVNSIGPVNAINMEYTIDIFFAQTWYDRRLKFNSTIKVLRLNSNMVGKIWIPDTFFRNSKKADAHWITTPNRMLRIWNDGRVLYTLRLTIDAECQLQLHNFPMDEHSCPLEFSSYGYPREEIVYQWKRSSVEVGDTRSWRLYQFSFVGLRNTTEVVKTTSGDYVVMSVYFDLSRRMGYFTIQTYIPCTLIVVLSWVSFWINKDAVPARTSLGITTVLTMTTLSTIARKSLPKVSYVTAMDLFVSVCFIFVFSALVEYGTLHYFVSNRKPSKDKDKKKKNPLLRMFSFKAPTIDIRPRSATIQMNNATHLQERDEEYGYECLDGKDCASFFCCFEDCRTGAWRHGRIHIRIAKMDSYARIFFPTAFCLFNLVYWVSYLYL
T2 sequence (P14867 28-456): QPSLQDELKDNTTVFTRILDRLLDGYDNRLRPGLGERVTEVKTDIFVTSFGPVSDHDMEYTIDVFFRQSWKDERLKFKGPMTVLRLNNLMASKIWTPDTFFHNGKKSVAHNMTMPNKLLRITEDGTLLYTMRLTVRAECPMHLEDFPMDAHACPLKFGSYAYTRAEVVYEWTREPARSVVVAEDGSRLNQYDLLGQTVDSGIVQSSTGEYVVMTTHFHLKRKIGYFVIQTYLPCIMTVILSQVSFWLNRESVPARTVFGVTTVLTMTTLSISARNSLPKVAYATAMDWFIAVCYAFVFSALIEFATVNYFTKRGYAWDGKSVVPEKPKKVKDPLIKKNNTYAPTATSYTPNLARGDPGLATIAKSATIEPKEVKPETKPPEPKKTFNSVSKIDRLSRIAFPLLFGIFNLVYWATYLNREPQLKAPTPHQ
T2 sequence (P47870 25-512 limits assumed): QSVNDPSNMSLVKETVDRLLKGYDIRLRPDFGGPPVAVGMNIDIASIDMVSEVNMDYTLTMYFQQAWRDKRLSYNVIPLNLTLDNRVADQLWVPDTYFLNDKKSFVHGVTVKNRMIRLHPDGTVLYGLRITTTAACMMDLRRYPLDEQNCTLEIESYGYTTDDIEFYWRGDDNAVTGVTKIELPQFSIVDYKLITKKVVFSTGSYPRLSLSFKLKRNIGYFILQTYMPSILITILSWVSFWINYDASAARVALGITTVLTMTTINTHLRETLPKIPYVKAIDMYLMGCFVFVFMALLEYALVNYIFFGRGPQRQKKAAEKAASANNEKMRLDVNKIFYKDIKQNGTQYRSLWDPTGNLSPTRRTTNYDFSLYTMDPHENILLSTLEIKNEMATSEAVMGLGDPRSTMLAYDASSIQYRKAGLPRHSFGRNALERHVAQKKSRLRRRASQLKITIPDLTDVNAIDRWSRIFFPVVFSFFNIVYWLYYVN
T2 sequence (P18507 40-475 partner): as the sequence (P18507 40-475 partner) above

C[C@]12CC[C@@H](O)C[C@H]1CC[C@@H]1[C@@H]2CC[C@]2(C)[C@@H](C(=O)CO)CC[C@@H]12 [THDOC, tetrahydrodeoxycorticosterone, reference compound]
EC75 concentration of THDOC [1]: 200 nM
EC75 concentration of THDOC [2]: 100 nM
